Structures are written as SMILES.

The first series can be described thus: Half life in mouse liver microsomes. It is filed as ADME, Microsome. (Liver microsomes are vesicles of endoplasmic reticulum, rich in cytochrome P450 enzymes.)
As usually defined, the half-life is the time needed for the level to fall by half in the phase considered. A low value points to rapid decline. For `CN(C)CCNC1=NC(=O)/C(=C/c2csc(-c3ccc(OC(F)(F)F)cc3)n2)S1`, the half-life was greater than 120 min.
Still for that read-out and setting: to `O=C1N=C(N[C@H]2CC[C@H](O)CC2)S/C1=C\c1csc(-c2ccc(OC(F)(F)F)cc2)n1` belongs 781 min; to `O=C1N=C(NCC2(CO)CC2)S/C1=C\c1csc(-c2ccc(OC(F)(F)F)cc2)n1`, greater than 120 min.
Turning to `N=C1NC(=O)/C(=C/c2csc(-c3ccc(C(F)(F)F)cc3)n2)S1`, the half-life is greater than 100 min.
Regarding `O=C1N=C(NCC2(CO)CCC2)S/C1=C\c1csc(-c2ccc(OC(F)(F)F)cc2)n1`, the half-life is greater than 120 min.
In the case of `CC(C)(CO)CNC1=NC(=O)/C(=C/c2csc(-c3cccc(OC(F)(F)F)c3)n2)S1`, the half-life is greater than 120 min.
On the same count and under the same terms, in the case of `CN1CCC(CNC2=NC(=O)/C(=C/c3ccc(-c4cccc(Cl)c4)o3)S2)CC1` it was greater than 120 min; in that of `O=C1NC(=S)S/C1=C\c1csc(-c2ccc(C(F)(F)F)cc2)n1`, 49 min; in that of `CN1CCC(CNC2=NC(=O)/C(=C/c3csc(-c4ccc(C(F)(F)F)cc4)n3)S2)CC1`, greater than 120 min.
Still for that read-out and setting: in the case of `CN(C)S(=O)(=O)Nc1cccc(-c2nc(/C=C3\SC(NCC(C)(C)CO)=NC3=O)cs2)c1` it was 7.56 min; in that of `CC(C)(CO)CNC1=NC(=O)/C(=C/c2csc(-c3ccc(OC(F)(F)F)cc3)n2)S1`, greater than 120 min; in that of `CN1CCC(CNC2=NC(=O)/C(=C/c3csc(-c4cccc(N(C)S(C)(=O)=O)c4)n3)S2)CC1`, 27.5 min.
Same read-out and setting: in the case of `CN(c1cccc(-c2nc(/C=C3\SC(NCC(C)(C)CO)=NC3=O)cs2)c1)S(C)(=O)=O` it was 5.68 min.

Another series can be described thus: Half life in mouse liver S9 fraction. In kind it is ADME, subcellular.
For `CC(C)(CO)CNC1=NC(=O)/C(=C/c2csc(-c3ccc(F)cc3O)n2)S1`, the half-life was 45.6 min.
The same measure, in the same setting: to `O=C1N=C(NCC2(CO)CC2)S/C1=C\c1csc(-c2ccccc2O)n1` belongs 28.9 min; to `O=C1N=C(N[C@H]2CCC[C@@H]2CO)S/C1=C\c1csc(-c2cccc(F)c2O)n1` (stereo in doubt), 22.1 min; to `CC(C)(CO)CNC1=NC(=O)/C(=C/c2csc(-c3cccc(OC(F)(F)F)c3O)n2)S1`, 84.2 min.
Same read-out and setting: in the case of `O=C1N=C(NCC2CCN(CCO)CC2)S/C1=C\c1csc(-c2ccccc2O)n1` it was greater than 120 min; in that of `CC(C)(CO)CNC1=NC(=O)/C(=C/c2csc(-c3cccc(F)c3O)n2)S1`, 44.4 min.

These data come from ChEMBL document CHEMBL4680285, “Aminothiazolones as potent, selective and cell active inhibitors of the PIM kinase family” (Bioorg Med Chem, 2020).
